Values of other authors, collected in US20110224120A1, “WASHING, CLEANING, POST-TREATING OR AUXILIARY WASHING AGENT CONTAINING SILVER” (Henkel AG & Co. KGaA, priority 2008, published 2011).

Conditions: Kanicky et al., Langmuir 2000, 16, 172-177

CCCCCCCCCCCCCC(=O)O [myristic acid]
pKa value: 8.15
